Like-named read-outs stand apart in the source and are kept apart here.
Legend:
Type in all cases: binding
[1] = molecular target: T1, HeLa cell extract proteins (Homo sapiens, UniProt O75608)
T1 construct: endogenous in cells; host or cells: HeLa cell extract

[2] = molecular target: T2, HeLa cell extract proteins (Homo sapiens, UniProt P49189)
T2 construct: endogenous in cells; host or cells: HeLa cell extract

[3] = molecular target: T3, HeLa cell extract proteins (Homo sapiens, UniProt Q6P2E9)
T3 construct: endogenous in cells; host or cells: HeLa cell extract
T3 sequence (Q6P2E9 1-1401): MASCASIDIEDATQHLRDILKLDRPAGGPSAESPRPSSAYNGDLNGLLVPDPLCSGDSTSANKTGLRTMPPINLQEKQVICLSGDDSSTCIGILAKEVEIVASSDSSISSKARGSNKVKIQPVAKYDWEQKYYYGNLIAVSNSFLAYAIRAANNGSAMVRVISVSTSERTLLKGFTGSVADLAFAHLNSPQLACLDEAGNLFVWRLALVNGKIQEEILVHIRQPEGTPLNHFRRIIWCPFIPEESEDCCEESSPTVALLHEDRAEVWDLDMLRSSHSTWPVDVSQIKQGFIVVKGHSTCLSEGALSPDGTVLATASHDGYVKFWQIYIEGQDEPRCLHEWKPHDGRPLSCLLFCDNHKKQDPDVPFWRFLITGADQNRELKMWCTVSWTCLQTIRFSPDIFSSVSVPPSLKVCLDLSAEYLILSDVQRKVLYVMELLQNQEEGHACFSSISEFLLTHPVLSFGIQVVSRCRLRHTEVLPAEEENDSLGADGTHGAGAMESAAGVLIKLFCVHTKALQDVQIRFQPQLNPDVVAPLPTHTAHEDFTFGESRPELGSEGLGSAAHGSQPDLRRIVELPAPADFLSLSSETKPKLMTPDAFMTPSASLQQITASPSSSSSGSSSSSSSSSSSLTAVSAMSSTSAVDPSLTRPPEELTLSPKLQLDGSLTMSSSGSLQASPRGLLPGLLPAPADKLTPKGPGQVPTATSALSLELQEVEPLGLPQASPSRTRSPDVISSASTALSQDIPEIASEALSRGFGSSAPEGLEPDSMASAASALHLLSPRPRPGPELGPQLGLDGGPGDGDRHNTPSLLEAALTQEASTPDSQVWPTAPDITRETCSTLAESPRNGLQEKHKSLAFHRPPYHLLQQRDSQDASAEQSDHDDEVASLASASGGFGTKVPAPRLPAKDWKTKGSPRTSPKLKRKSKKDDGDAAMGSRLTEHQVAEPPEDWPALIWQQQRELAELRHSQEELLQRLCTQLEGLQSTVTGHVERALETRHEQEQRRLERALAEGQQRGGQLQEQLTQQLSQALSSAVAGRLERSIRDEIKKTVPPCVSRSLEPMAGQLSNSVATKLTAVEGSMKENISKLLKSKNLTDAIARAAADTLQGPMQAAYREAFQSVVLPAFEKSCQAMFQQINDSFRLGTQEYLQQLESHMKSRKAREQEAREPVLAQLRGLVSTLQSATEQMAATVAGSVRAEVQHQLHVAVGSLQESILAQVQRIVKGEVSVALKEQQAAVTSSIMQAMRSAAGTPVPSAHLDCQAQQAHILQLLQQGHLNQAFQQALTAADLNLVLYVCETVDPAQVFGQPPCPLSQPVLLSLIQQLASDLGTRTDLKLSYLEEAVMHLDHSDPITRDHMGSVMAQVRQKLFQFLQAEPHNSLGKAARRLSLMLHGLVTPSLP

[4] = molecular target: T4, HeLa cell extract proteins (Homo sapiens, UniProt Q8NFH4)
T4 construct: endogenous in cells; host or cells: HeLa cell extract
T4 sequence (Q8NFH4 1-326): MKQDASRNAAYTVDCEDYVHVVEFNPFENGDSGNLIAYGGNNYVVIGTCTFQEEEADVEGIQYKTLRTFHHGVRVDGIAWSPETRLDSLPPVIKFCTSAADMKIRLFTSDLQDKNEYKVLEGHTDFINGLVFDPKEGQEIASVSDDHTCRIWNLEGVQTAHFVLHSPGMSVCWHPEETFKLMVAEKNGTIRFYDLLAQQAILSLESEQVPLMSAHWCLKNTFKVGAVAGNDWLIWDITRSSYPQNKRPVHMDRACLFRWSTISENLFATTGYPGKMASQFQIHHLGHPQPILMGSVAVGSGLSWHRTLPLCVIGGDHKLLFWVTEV

[5] = molecular target: T5, HeLa cell extract proteins (Homo sapiens, UniProt Q9NVI7)
T5 construct: endogenous in cells; host or cells: HeLa cell extract
T5 sequence (Q9NVI7 1-586): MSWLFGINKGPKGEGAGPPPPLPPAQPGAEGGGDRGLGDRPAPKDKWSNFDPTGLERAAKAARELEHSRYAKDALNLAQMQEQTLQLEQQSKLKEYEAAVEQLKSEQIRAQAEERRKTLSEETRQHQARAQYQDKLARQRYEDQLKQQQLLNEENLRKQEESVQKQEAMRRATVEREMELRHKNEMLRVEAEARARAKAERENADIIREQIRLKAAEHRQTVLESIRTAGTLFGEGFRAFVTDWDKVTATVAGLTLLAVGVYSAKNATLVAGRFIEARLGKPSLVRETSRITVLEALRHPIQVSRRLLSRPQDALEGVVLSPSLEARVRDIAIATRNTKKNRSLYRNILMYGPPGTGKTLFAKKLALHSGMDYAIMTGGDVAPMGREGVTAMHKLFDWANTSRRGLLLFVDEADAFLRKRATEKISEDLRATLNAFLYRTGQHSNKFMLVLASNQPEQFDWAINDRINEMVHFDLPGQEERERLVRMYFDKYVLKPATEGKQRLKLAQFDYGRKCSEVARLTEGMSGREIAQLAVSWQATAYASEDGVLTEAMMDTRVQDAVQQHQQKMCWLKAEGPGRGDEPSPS

T1 sequence (O75608 whole entry): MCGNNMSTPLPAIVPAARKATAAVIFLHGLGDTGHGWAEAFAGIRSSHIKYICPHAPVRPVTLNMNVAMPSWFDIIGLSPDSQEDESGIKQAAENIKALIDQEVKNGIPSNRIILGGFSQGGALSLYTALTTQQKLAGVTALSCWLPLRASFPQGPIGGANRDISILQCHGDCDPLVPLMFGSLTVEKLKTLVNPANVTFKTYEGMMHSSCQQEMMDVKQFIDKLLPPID
T2 sequence (P49189 whole entry): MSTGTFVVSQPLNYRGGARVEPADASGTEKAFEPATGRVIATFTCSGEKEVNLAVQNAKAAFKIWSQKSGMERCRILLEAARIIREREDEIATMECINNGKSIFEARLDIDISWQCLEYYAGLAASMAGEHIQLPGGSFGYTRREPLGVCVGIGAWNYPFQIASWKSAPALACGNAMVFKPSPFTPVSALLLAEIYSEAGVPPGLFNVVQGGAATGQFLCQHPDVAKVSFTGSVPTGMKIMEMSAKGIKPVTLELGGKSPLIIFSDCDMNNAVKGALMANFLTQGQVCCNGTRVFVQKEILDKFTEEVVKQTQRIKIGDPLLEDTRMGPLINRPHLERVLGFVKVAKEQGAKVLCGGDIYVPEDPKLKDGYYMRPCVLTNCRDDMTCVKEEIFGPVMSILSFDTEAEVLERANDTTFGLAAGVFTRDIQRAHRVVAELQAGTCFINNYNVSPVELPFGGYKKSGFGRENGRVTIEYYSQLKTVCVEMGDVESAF

Nc1nc2c(c(=O)[nH]1)N(C=O)C(CNc1ccc(C(=O)N[C@@H](CCC(=O)O)C(=O)O)cc1)CN2 (some centres unmarked) [LEU, leucovorin]
fold changes relative to vehicle control ([1]; HeLa, captured protein LYPLA1): 0.89 | fold changes relative to vehicle control ([2]; HeLa, captured protein ALDH9A1): 0.9 | fold changes relative to vehicle control ([3]; HeLa, protein EDC4): 1.03 | fold changes relative to vehicle control ([4]; HeLa, protein NUP37): 0.86 | fold changes relative to vehicle control ([5]; HeLa, protein ATAD3A): 0.98

Nc1nc2[nH]cc(CCc3ccc(C(=O)N[C@@H](CCC(=O)O)C(=O)O)cc3)c2c(=O)[nH]1 [PTX, pemetrexed]
fold changes relative to vehicle control [1]: 0.93 | fold changes relative to vehicle control [2]: 1.02 | fold changes relative to vehicle control [3]: 1.02 | fold changes relative to vehicle control [4]: 0.91 | fold changes relative to vehicle control [5]: 1.12

CCCCCCOc1ccc(Cc2cnc(N)nc2N)cc1 [compound 1]
fold changes relative to vehicle control ([1]; HeLa, protein LYPLA1): 0.92 | fold changes relative to vehicle control ([2]; protein ALDH9A1, HeLa): 1 | fold changes relative to vehicle control ([3]; HeLa, protein EDC4): 0.87 | fold changes relative to vehicle control ([4]; captured protein NUP37, HeLa): 1.14 | fold changes relative to vehicle control ([5]; HeLa, protein ATAD3A): 1.13

CCCCCCOc1cccc(Cc2cnc(N)nc2N)c1 [compound 2]
fold changes relative to vehicle control ([1]; HeLa, protein LYPLA1): 1.1 | fold changes relative to vehicle control ([2]; protein ALDH9A1, HeLa): 1.01 | fold changes relative to vehicle control ([3]; HeLa, protein EDC4): 1.12 | fold changes relative to vehicle control ([4]; captured protein NUP37, HeLa): 0.98 | fold changes relative to vehicle control ([5]; HeLa, protein ATAD3A): 1.15

Nc1nc2cccc(-c3ccccc3)c2n1Cc1ccc(Cl)c(Cl)c1 [compound 3]
fold changes relative to vehicle control ([1]; HeLa, protein LYPLA1): 0.71 | fold changes relative to vehicle control ([2]; protein ALDH9A1, HeLa): 1.08 | fold changes relative to vehicle control ([3]; HeLa, protein EDC4): 0.98 | fold changes relative to vehicle control ([4]; captured protein NUP37, HeLa): 1.01 | fold changes relative to vehicle control ([5]; HeLa, protein ATAD3A): 1.05

NCCOCCOCC(=O)Nc1nc2ncc(CNc3ccc(C(=O)NC(CCC(=O)O)C(=O)O)cc3)nc2c(=O)[nH]1 (centres unmarked) [compound 6]
fold changes relative to vehicle control ([1]; HeLa, captured protein LYPLA1): 0.98 | fold changes relative to vehicle control ([2]; HeLa, captured protein ALDH9A1): 0.92 | fold changes relative to vehicle control ([3]; HeLa, protein EDC4): 1.03 | fold changes relative to vehicle control ([4]; HeLa, protein NUP37): 0.9 | fold changes relative to vehicle control ([5]; HeLa, protein ATAD3A): 1.17

NCCCNc1ccc(C(=O)NC(CCC(=O)O)C(=O)O)cc1 (centres unmarked) [compound 7]
fold changes relative to vehicle control ([1]; HeLa, captured protein LYPLA1): 0.92 | fold changes relative to vehicle control ([2]; HeLa, captured protein ALDH9A1): 0.98 | fold changes relative to vehicle control ([3]; HeLa, protein EDC4): 0.97 | fold changes relative to vehicle control ([4]; HeLa, protein NUP37): 0.96 | fold changes relative to vehicle control ([5]; HeLa, protein ATAD3A): 1.13
